This note sets out measurements from ChEMBL document CHEMBL3507680, “University of Dundee, Gates Library screen for HepG2 cell viability”.

The data set can be described thus: Human HepG2 cell viability assay in 384 well format. It counts as toxicity, cell-based. More on the design: dose 125 nL, time 70.5 hour; cytotoxicity at 70.5 h: concentration not given beside the values. The conditions noted are these: HepG2 cells, read-out: Inhibition.

Turning to `Cc1noc(C)c1CN(C)CCc1nc(-c2cccc(Cl)c2)no1`, the cytotoxicity at 70.5 h was -10.4%.
As to `COC(=O)NCC(=O)N(C)Cc1csc(C)n1`, the cytotoxicity at 70.5 h is -4.39%.
With `CC(C)c1ccc2c(c1)CCCN2C(=O)CN(C)S(C)(=O)=O` the figure was -94.4%.
Turning to `O=C(CNc1cc(-n2cnnn2)ccc1F)NCc1ccccc1`, the cytotoxicity at 70.5 h is -118%.
As for `COCCc1nc(-c2cnn3c(C)cc(C)nc23)no1`, the cytotoxicity at 70.5 h is -107%.
With `O=C(O)c1cc(S(=O)(=O)Nc2cccc3c2OCCO3)ccc1F` the figure was -18.2%; with `NC(=O)C1CN(c2ccc3cc(Br)ccc3n2)CCO1` (stereo not drawn), -109%.
With `Cc1ccc(C(=O)N2CCOC3(CCCC3)C2)c(=O)[nH]1` the figure was -41.7%; with `N#Cc1cccc(Cl)c1NC1CCN(CC(N)=O)CC1`, -106%.
Consider `CNC(=O)c1ccc(CNc2ccncc2Cl)cc1`, for which the cytotoxicity at 70.5 h is -98.3%.
For the compound `CN(Cc1cnn(C)c1)C(=O)CCC(=O)c1ccc2c(c1)OCCO2`, the cytotoxicity at 70.5 h is -82.6%.
Consider `CCn1c(C)cc(C(=O)N2CCC(Nc3ccc(C)nn3)CC2)c1C`, for which the cytotoxicity at 70.5 h is -91.3%.
The same measure for `CCOc1cc(Cl)ccc1CNC(=O)N(C)CC(C)(C)O`: -78.1%; for `CNS(=O)(=O)c1cccc(CNc2ccc(C#N)cn2)c1`: -7.11%.
With `COc1cc(CNC(=O)Nc2nnc(C3CC3)s2)ccc1O` the figure was -8.51%.
Take `COc1ncccc1CNC(=O)c1csc(Br)c1`: the cytotoxicity at 70.5 h is -8.18%.
The same measure for `N#CCCN(Cc1ccco1)C(=O)CN1CCCC1c1cccs1` (stereo not drawn): 1.44%; for `CN(Cc1ccco1)C(=O)NC(Cn1ccnc1)C(C)(C)C` (stereo not drawn): -5.15%.
The same measure for `COc1cc(CNC(=O)c2csc(Br)c2)ccn1`: -12.9%; for `CCc1nnsc1C(=O)NCc1c(C)nn(CCOC)c1C`: -7.41%.
Take `CNS(=O)(=O)Cc1cccc(CNc2ccc(C#N)cn2)c1`: the cytotoxicity at 70.5 h was -10.5%.
Regarding `O=C1CCN(C(=O)C2(c3ccc(F)cc3)CCCCC2)CCN1`, the cytotoxicity at 70.5 h is -8.46%.
Regarding `O=C1CCN(C(=O)C2(c3ccc(F)cc3)CCCC2)CCN1`, the cytotoxicity at 70.5 h was -5.37%.
With `Cc1nnc(C2Cc3ccccc3CN2Cc2nc(C3CC3)no2)o1` (stereo not drawn) the figure was -5.34%; with `O=C(NCCCN1CCOCC1)C(OC1CCCC1)c1ccccc1` (stereo not drawn), -1.75%; with `CCc1nnc2n1CCN(C(=O)c1cnc3c(cnn3C(C)C)c1)C2`, -8.43%.
`CCCn1[nH]cc/c1=N\C(=O)CN1CCCC1Cn1nc(C)nc1C` (stereo not drawn): the cytotoxicity at 70.5 h was -1.59%.
Regarding `CCNC(=O)CNS(=O)(=O)Cc1cc(-c2ccccc2)no1`, the cytotoxicity at 70.5 h stood at 2.55%.
With `COc1ccc(CNC(=O)N2CCCN(CC3CCCCC3)CC2)cn1` the figure was -5.17%.
The same measure for `COCCOc1ccc(NC(=O)N(C(C)C)C2CC2)cn1`: -3.25%; for `CN(Cc1cc(Br)cn1C)C(=O)c1cc(Cl)ccn1`: 30.9%; for `CC(C(=O)NS(=O)(=O)Cc1cc(-c2ccccc2)no1)C1CC1` (stereo not drawn): -1.89%.
Regarding `CCNC(=O)CCC(=O)NC(C)Cc1ccccc1Br` (stereo not drawn), the cytotoxicity at 70.5 h worked out at 4.19%.
In the case of `Cc1noc(NCc2ccc(F)cc2)n1`, the cytotoxicity at 70.5 h is -1.48%.
Take `CN1CCN(CCNC(=O)C(OC2CCCC2)c2ccccc2)CC1` (stereo not drawn): the cytotoxicity at 70.5 h stood at 5.3%.
On to `COCCOc1ccc(NC(=O)N(CCCO)CC(C)(C)C)cn1`, for which the cytotoxicity at 70.5 h was 21.2%.
Consider `CCCn1[nH]cc/c1=N\C(=O)CN1CCCC1Cn1cccn1` (stereo not drawn), for which the cytotoxicity at 70.5 h was -6.25%.
With `Cc1nc2n(n1)CC(NCc1nnc(C(C)(C)C)o1)CC2` (stereo not drawn) the figure was -6.83%; with `CC(Cn1ccnc1)NC(=O)N(C)Cc1ccco1` (stereo not drawn), -2.84%.
Consider `CCc1nnc(C2Cc3ccccc3CN2Cc2cc(C)no2)o1` (stereo not drawn), for which the cytotoxicity at 70.5 h is -4.33%.
The same measure for `CCN(CC)c1ccc(CNC(=O)c2cnccn2)cn1`: 18%; for `CCN(CC)c1ccc(CNC(=O)c2ccc(=O)[nH]n2)cn1`: -13.1%; for `O=C(c1cc(C2CC2)[nH]n1)N1CCN(c2nccs2)CC1`: -11.6%.
In the case of `O=C(c1ccoc1)N1CCC(NCc2cccnc2)CC1`, the cytotoxicity at 70.5 h is 4.06%.
With `CCS(=O)(=O)N1CCC(Nc2ccc(C#N)cc2F)CC1` the figure was -10.9%.
The same measure for `CC(NC(=O)CN1C=Nc2ccccc2S1(=O)=O)c1ccccc1` (stereo not drawn): -9.29%; for `Cc1ccc(CNC(=O)N2CCN(S(C)(=O)=O)CC2)n1C`: -6.21%.
The same measure for `Cc1nc(S(=O)(=O)NCCC(=O)NCc2ccsc2)cn1C`: -6.68%.
As to `Fc1ccccc1CN1CCC(c2n[nH]c(C3CC3)n2)CC1`, the cytotoxicity at 70.5 h is -5.65%.
The same measure for `c1cc(CCN2CCC(c3n[nH]c(C4CC4)n3)CC2)ccn1`: 11.7%; for `Cc1ccc(CNC(=O)C2CCN(C(=O)C(C)C)CC2)n1C`: -9.28%.
As to `CCNc1cc2c(nn1)CCN(C(=O)Cc1ccc3c(c1)CCO3)C2`, the cytotoxicity at 70.5 h is -7.37%.
With `Cc1nc(-c2cnn(C)c2)sc1C(=O)NCc1ccc(C)n1C` the figure was -2.82%; with `O=C(Nc1ccccc1F)N(CCO)CCOCC(F)(F)F`, -4.12%; with `CCOC(=O)c1ccc(CNC(=O)c2ccon2)o1`, 14.2%.
With `O=C(CCn1cccn1)NS(=O)(=O)N1CCCc2ccccc21` the figure was -8.67%; with `CCOC(=O)c1ccc(CNC(=O)c2ccc(Cl)cn2)o1`, -6.63%.
Consider `Cn1cc(C2(C)CN(c3ncccc3C#N)CCO2)cn1` (stereo not drawn), for which the cytotoxicity at 70.5 h was 3.03%.
With `Cc1c(NC(C)C(C)C)cccc1C(=O)NCc1ccnn1C` (stereo not drawn) the figure was 4.31%.
With `Cn1cc(C(=O)N2CCCC2CCc2ccccc2)cn1` (stereo not drawn) the figure was -9.35%.
The same measure for `Cc1nc(-c2cnn(C)c2)sc1C(=O)NCc1cccc(CN(C)C)c1`: -6.53%; for `CCc1cc(NC(=O)N2CCC(Oc3cccnc3)C2)n(C)n1` (stereo not drawn): -6.65%; for `Cc1nnc(NCC(c2ccco2)N2CCCC2)c(C#N)c1C` (stereo not drawn): 3.51%.
Turning to `O=C(CS(=O)(=O)c1ccccn1)NC1CCCc2ccccc21` (stereo not drawn), the cytotoxicity at 70.5 h was found to be 1%.
The same measure for `O=C(NCCc1cccs1)NC1CCN(c2ncccn2)CC1`: -6.98%.
The same measure for `CS(=O)(=O)NCC1CCCN(C(=O)Nc2ccccc2F)C1` (stereo not drawn): 1.05%; for `CS(=O)(=O)NCC1CCCN(C(=O)Nc2cccc3ccccc23)C1` (stereo not drawn): -3.21%.
With `O=C(c1cccc(-n2cnnn2)c1)N1CCC2(CC1)OCCO2` the figure was -7.02%.
Regarding `Cc1nc(CNC(=O)NC2CCN(c3ncccn3)CC2)cs1`, the cytotoxicity at 70.5 h is -6.89%.
The same measure for `CCS(=O)(=O)CC(=O)NC(c1ccccc1)C1CCCC1` (stereo not drawn): 0.476%; for `CCCN(CC(F)F)C(=O)CCc1c(C)nc2cc(O)nn2c1C`: 23.2%.
With `Cc1ccc(-n2cc(C(=O)N3CCn4c(C)nnc4C3)nn2)cc1` the figure was 26.8%; with `Cc1cc(C(=O)N2CCC(Nc3cccnc3)CC2)c(C)s1`, 2.17%; with `COc1cc(C(=O)N2CCC(Nc3cccnc3)CC2)ccc1C`, 6.09%.
For the compound `Cc1nn(C)c(C)c1CNCc1cccnc1N1CCOCC1`, the cytotoxicity at 70.5 h is -7.44%.
Take `O=C(Cc1ccc2c(c1)CCO2)N1CCCC1Cn1cccn1` (stereo not drawn): the cytotoxicity at 70.5 h is -4.67%.
Regarding `O=C(CS(=O)(=O)C1CCCC1)NC(c1ccc(F)cc1)C1CC1` (stereo not drawn), the cytotoxicity at 70.5 h stood at 1.6%.
For `N#Cc1ncn(CCC(=O)Nc2ccccc2F)n1`, the cytotoxicity at 70.5 h is -0.493%.
In the case of `Cc1ccc(C(=O)N2CCN(CCCSCC#N)CC2)cc1F`, the cytotoxicity at 70.5 h was -7.64%.
The same measure for `COCC(=O)N(C)Cc1ccc(F)c(F)c1`: 28.3%; for `Cc1ccc(CC(=O)N2CCCCC2Cn2cccn2)cn1` (stereo not drawn): -0.224%; for `Cc1cnn(CC2CCCN2C(=O)Cc2ccc3c(c2)CCO3)c1` (stereo not drawn): -7.32%.
`Cc1nc(C)c(C(=O)Nc2cccc(CN3CCC(CO)CC3)c2)o1`: the cytotoxicity at 70.5 h turned out to be 0.852%.
As to `CN(CCN1CCOCC1)C(=O)CCc1ccc(C(F)(F)F)cc1`, the cytotoxicity at 70.5 h is 10.6%.
The same measure for `NS(=O)(=O)c1ccc(CNC(=O)c2ccc(Cl)cc2F)cc1`: 5.61%.
With `O=C(NCc1ccncc1)c1ccc(Cl)cc1F` the figure was 4.94%; with `Cc1ccc(Cl)cc1NC(=O)C1CC(=O)N(Cc2ccccn2)C1` (stereo not drawn), 8.15%; with `O=C(Nc1cccc(C(F)(F)F)c1)C1CC(=O)N(Cc2ccccn2)C1` (stereo not drawn), 34.8%.
The same measure for `O=C(NCc1ccccc1F)NC1CCCN(c2ncccn2)C1` (stereo not drawn): -4.69%; for `CN(C)C(=O)Cc1ccc(NC(=O)NC2CC2)cc1`: -3.59%.
In the case of `Cc1nn(CC(=O)N2CCN(c3cnccn3)CC2)c(C)c1Cl`, the cytotoxicity at 70.5 h was -9.18%.
The same measure for `Cc1nn(CC(=O)N2CCN(c3ncccn3)CC2)c(C)c1Cl`: 21.2%; for `COCCn1ccc(NC(=O)Nc2cccc(C#N)c2)n1`: -9.39%.
With `CC(C)COC1CCN(C(=O)c2cc3ccccc3c(=O)[nH]2)CC1` the figure was -4.65%.
On to `COCCn1ccc2cc(NC(=O)COC)ccc21`, for which the cytotoxicity at 70.5 h was -3.46%.
In the case of `Cc1nc(CNC(=O)NCc2ccc(OCC3CC3)nc2)cs1`, the cytotoxicity at 70.5 h was -5.23%.
On to `COCCn1ccc(NC(=O)Nc2ccc(C)cc2)n1`, for which the cytotoxicity at 70.5 h was -5.81%.
As for `COc1cccc(S(=O)(=O)NC(=O)c2c(C)noc2C(C)C)c1`, the cytotoxicity at 70.5 h is -3.75%.
The same measure for `CCc1nccn1C1CCCN(C(=O)c2cc[nH]n2)C1` (stereo not drawn): -1.71%; for `CCc1nccn1C1CCCN(C(=O)c2cnc[nH]2)C1` (stereo not drawn): -3.68%; for `CCc1nccn1C1CCCN(C(=O)c2cc(C3CC3)on2)C1` (stereo not drawn): -6.97%.
Consider `CCc1csc(C2CCCN(C(=O)c3ccc(OC)nc3)C2)n1` (stereo not drawn), for which the cytotoxicity at 70.5 h was -1.94%.
On to `CCc1csc(C2CCCN(C(=O)CCn3cc(C)cn3)C2)n1` (stereo not drawn), for which the cytotoxicity at 70.5 h came out at 17.5%.
